Reference: patent publication US10239829B2, “Antagonists of the glucagon receptor” (Metabasis Therapeutics, Inc., priority 2007, dated 2019)

Legend:
db/db mice = experiment: Glucose lowering in db/db mice; type: in vivo, mouse; details: freely-feeding; for inhibition in vivo at 30 mg/kg / inhibition in vivo at 100 mg/kg: Mus musculus, oral gavage, 100% = normalization to lean db/+ mice; for Glucose lowering: vs vehicle-treated db/db mice
Protocol: Purpose: To assess the effects of compounds of the invention on blood glucose levels in the db/db mouse, an animal model of type 2 diabetes.
Methods: Compounds were dissolved in polyethylene glycol-400 and administered by oral gavage to db/db mice in the freely-feeding state at doses of 30 and/or 100 mg/kg. Blood glucose levels were assessed in blood samples obtained by tail bleed at baseline (prior to drug administration) and at regular time intervals over 24 hours using a portable glucometer such as the OneTouch or HemoCue meters. The magnitude of blood glucose lowering elicited by the compounds of the invention was determined by comparison to those in db/db mice administered only the vehicle. The percentage glucose lowering was calculated by factoring in the blood glucose levels of vehicle-treated lean db/+(heterozygote) mice, with 100% representing the normalization of blood glucose levels from the hyperglycemic state (vehicle-treated db/db mice) to the normoglycemic state (vehicle-treated db/+ mice).

[1] = test system: glucagon-challenged Beagle dogs; experiment: Glucose lowering in glucagon-challenged Beagle dogs; type: in vivo, dog; details: Beagle dogs (n=3), oral gavage 38 mg/kg in PEG-400, glucagon 20 μg s.c. after 1.5 hours
Protocol: Purpose: To assess the effects of compounds of the invention on blood glucose levels in glucagon-challenged Beagle dogs.
Methods: Beagle dogs (n=3) were treated with vehicle (polyethylenelglycol-400) by oral gavage. After 1.5 hours, glucagon (20 μg) was administered subcutaneously. Blood glucose levels were measured prior to glucagon administration and at 10-minute intervals thereafter for up to an hour. Blood samples for these determinations were obtained from a superficial ear vein and were measured using a OneTouch glucometer. After a 1-week washout, the animals were treated by oral gavage with the compound of Example 2.009 at a dose of 38 mg/kg (polyethylenelglycol-400 formulation). The glucagon challenge and blood sampling were then performed as before.

[2] = oral gavage in PEG-400, dose 30 mg/Kg
[3] = oral gavage in PEG-400, dose 100 mg/Kg

Row | SMILES | inhibition in vivo at 30 mg/kg (db/db mice) [%] | Glucose lowering (db/db mice; [2]) [mg/dL] | inhibition in vivo at 100 mg/kg (db/db mice) [%] | Glucose lowering (db/db mice; [3]) [mg/dL] | attenuation of the glucagon-induced glucose excursion [1]
1 | Cc1cc(NC(=O)C(Cc2ccc(C(=O)NCCS(=O)(=O)O)cc2)c2ccc(OCC(C)(C)C)cc2)ccc1-c1ccc(C(F)(F)F)cc1C (centres unmarked) [Example 1.311] | 36 | 109 | – | – | –
2 | CC(c1ccc(C(=O)NCCS(=O)(=O)[O-])cc1)C(C(=O)Nc1ccc(-c2ccc(Cl)cc2Cl)cc1)c1ccc(/C=C/C(C)(C)C)cc1.[Na+] (centres unmarked) [Example 1.137] | 53 | 159 | – | – | –
3 | CC(C)(C)/C=C/c1ccc(C(Cc2ccc(C(=O)NCCS(=O)(=O)[O-])cc2)C(=O)Nc2ccc(-c3cc4ccccc4o3)cc2)cc1.[Na+] (centres unmarked) [Example 1.052] | 61 | 147 | – | – | –
4 | Cc1cc(Cl)ccc1-c1ccc(NC(=O)C(Cc2ccc(C(=O)NCCS(=O)(=O)O)cc2)c2ccc(/C=C/C(C)(C)C)cc2)cc1Cl (centres unmarked) [Example 1.359] | – | – | 48 | 150 | –
5 | Cc1cc(NC(=O)C(Cc2ccc(C(=O)NCCS(=O)(=O)O)cc2)c2ccc(/C=C/C(C)(C)C)cc2)ccc1-c1ccc(C(F)(F)F)cc1Cl (centres unmarked) [Example 1.179] | 34 | 102 | – | – | –
6 | CC(C)(C)C1CCC(C(Cc2ccc(C(=O)NCCS(=O)(=O)[O-])cc2)C(=O)Nc2ccc(-c3ccc(Cl)cc3Cl)cc2)CC1.[Na+] (centres unmarked) [Example 1.138] | 6 | 19 | – | – | –
7 | Cc1cc(C(F)(F)F)ccc1-c1ccc(NC(=O)C(Cc2ccc(C(=O)NCCS(=O)(=O)O)cc2)c2ccc(/C=C/C(C)(C)C)cc2)cc1Cl (centres unmarked) [Example 1.173] | 50 | 172 | – | – | –
8 | Cc1cc(C(F)(F)F)ccc1-c1ccc(NC(=O)C(Cc2ccc(C(=O)NCCS(=O)(=O)O)cc2)c2ccc(/C=C/C(C)(C)C)cc2)cc1 (centres unmarked) [Example 1.320] | 39 | 121 | – | – | –
9 | CC(C)(C)C1CC=C(c2ccc(C(Cc3ccc(C(=O)NCCS(=O)(=O)O)cc3)C(=O)Nc3ccc(-c4ccc(C(F)(F)F)cc4Cl)cc3)cc2)CC1 (centres unmarked) [Example 1.270] | 24 | 63 | – | – | –
10 | CC(C)(C)COc1ccc(C(Cc2ccc(C(=O)NCCS(=O)(=O)O)cc2)C(=O)Nc2ccc(-c3ccc(Cl)cc3Cl)cc2)cc1.[Na+] (centres unmarked) [Example 1.136] | 16 | 47 | – | – | –
11 | Cc1cc(Cl)ccc1-c1ccc(NC(=O)C(Cc2ccc(C(=O)NCCS(=O)(=O)O)cc2)c2ccc(C3=CCC(C(C)(C)C)CC3)cc2)cc1 (centres unmarked) [Example 1.269] | 42 | 124 | – | – | –
12 | CC(C)(C)/C=C/c1ccc(C(Cc2ccc(C(=O)NCCS(=O)(=O)[O-])cc2)C(=O)Nc2ccc(-c3ccc(Cl)cc3Cl)cc2)cc1.[Na+] (centres unmarked) [Example 1.133] | 57 | 157 | – | – | –
13 | O=C(NCCS(=O)(=O)O)c1ccc(CC(C(=O)Nc2ccc(-c3cc4ccccc4o3)cc2Cl)c2ccc(OC(F)(F)F)cc2)cc1 (centres unmarked) [Example 1.155] | 49 | 108 | – | – | –
14 | CC(C)(C)COc1ccc(C(Cc2ccc(C(=O)NCCS(=O)(=O)O)cc2)C(=O)Nc2ccc(-c3ccc(C(F)(F)F)cc3Cl)cc2)cc1 (centres unmarked) [Example 1.314] | 40 | 95 | – | – | –
15 | CC(C)(C)c1ccc(C(Cc2ccc(C(=O)NCCS(=O)(=O)[O-])cc2)c2cc(-c3cccc(-c4ccc(Cl)cc4)c3)on2)cc1.[Na+] (centres unmarked) [Example 2.009] | – | – | – | – | approximately 40%
16 | CCC(c1ccc(C(=O)NCCS(=O)(=O)O)cc1)C(C(=O)Nc1ccc(-c2ccc(Cl)cc2Cl)cc1)c1ccc(/C=C/C(C)(C)C)cc1 (centres unmarked) [Example 1.315] | 57 | 172 | – | – | –
17 | CC(C)(C)/C=C/c1ccc(C(Cc2ccc(C(=O)NCCS(=O)(=O)O)cc2)C(=O)Nc2ccc(C3=Cc4ccccc4C3)cc2)cc1 (centres unmarked) [Example 1.321] | 68 | 161 | – | – | –
18 | CC(C)(C)/C=C/c1ccc(C(Cc2ccc(C(=O)NCCS(=O)(=O)[O-])cc2)C(=O)Nc2ccc(-c3ccc(C(F)(F)F)cc3Cl)cc2)cc1.[Na+] (centres unmarked) [Example 1.135] | – | – | 41 | 131 | –
